US8273773B2 (priority 2008, dated 2012)

Biological target: T1, HCV polymerase (NS5B570n-Con1) (Hepatitis C virus genotype 1b, UniProt Q9WMX2)
T1 construct: contains a 21 amino acid deletion at the C-terminus relative to the full-length HCV polymerase; 6-histidine (N); made in house; host or cells: E. coli strain BL21(DE) pLysS (pET17b)
Experiment: biochemical
Set-up: species or system HCV Con1 strain
Details: IC50 HCV NS5B RNA Polymerase Assay (values with asterisk), values with asterisk: cIRES RNA template, 3 nM NS5B570n-Con1
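Further: recombinant His-tagged enzyme from E. coli, radiolabeled nucleotide incorporation into acid-insoluble RNA read by scintillation after filtration, no-enzyme background subtracted, activity relative to positive control.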

Structure (SMILES) | IC50
COC(=O)c1cc(NS(C)(=O)=O)ccc1CCc1cc(-c2cc(F)c[nH]c2=O)cc(C(C)(C)C)c1OC [I-189] | 1 nM
COc1c(CCc2ccc(NS(C)(=O)=O)cc2C(=O)O)cc(-c2cc(F)c[nH]c2=O)cc1C(C)(C)C [I-190, 2-{2-[3-tert-Butyl-5-(5-fluoro-2-oxo-1,2-dihydro-pyridin-3-yl)-2-methoxy-phenyl]-ethyl}-5-methanesulfonylamino-benzoic acid] | 1 nM
COC(=O)c1cc(NS(C)(=O)=O)ccc1/C=C/c1cc(-c2ccc(C)[nH]c2=O)cc(C(C)(C)C)c1OC [I-201, 2-{(E)-2-[3-tert-Butyl-2-methoxy-5-(6-methyl-2-oxo-1,2-dihydro-pyridin-3-yl)-phenyl]-vinyl}-5-methanesulfonylamino-benzoic acid methyl ester] | 1 nM
COc1c(/C=C/c2ccc(NS(C)(=O)=O)cc2C(C)(C)O)cc(-c2ccc[nH]c2=O)cc1C(C)(C)C [I-204, N-[4-{(E)-2-[3-tert-Butyl-2-methoxy-5-(2-oxo-1,2-dihydro-pyridin-3-yl)-phenyl]-vinyl}-3-(1-hydroxy-1-methyl-ethyl)-phenyl]-methanesulfonamide] | 1 nM
COCc1cc(NS(C)(=O)=O)ccc1/C=C/c1cc(-c2ccc[nH]c2=O)cc(C(C)(C)C)c1OC [I-206, N-(4-{E-2-[3-tert-Butyl-2-methoxy-5-(2-oxo-1,2-dihydro-pyridin-3-yl)-phenyl]-vinyl}-3-methoxymethyl-phenyl)-methanesulfonamide] | 2 nM
COc1c(/C=C/c2ccc(NS(C)(=O)=O)cc2C(=O)N(C)CCN(C)C)cc(-c2cc(F)c[nH]c2=O)cc1C(C)(C)C [I-207] | 4 nM
COCc1cc(NS(C)(=O)=O)ccc1/C=C/c1cc(-c2ccc(C)[nH]c2=O)cc(C(C)(C)C)c1OC [I-208, N-(4-{(E)-2-[3-tert-Butyl-2-methoxy-5-(6-methyl-2-oxo-1,2-dihydro-pyridin-3-yl)-phenyl]-vinyl}-3-methoxymethyl-phenyl)-methanesulfonamide] | 1 nM
COCc1cc(NS(C)(=O)=O)ccc1/C=C/c1cc(-c2ccc(OC)[nH]c2=O)cc(C(C)(C)C)c1OC [I-209, N-(4-{(E)-2-[3-tert-Butyl-2-methoxy-5-(6-methoxy-2-oxo-1,2-dihydro-pyridin-3-yl)-phenyl]-vinyl}-3-methoxymethyl-phenyl)-methanesulfonamide] | 1 nM
COc1ccc(-c2cc(/C=C/c3ccc(NS(C)(=O)=O)cc3CO)c(OC)c(C(C)(C)C)c2)c(=O)[nH]1 [I-210, N-(4-{(E)-2-[3-tert-Butyl-2-methoxy-5-(6-methoxy-2-oxo-1,2-dihydro-pyridin-3-yl)-phenyl]-vinyl}-3-hydroxymethyl-phenyl)-methanesulfonamide] | 1 nM
COc1ccc(-c2cc(/C=C/c3ccc(NS(C)(=O)=O)cc3C(=O)O)c(OC)c(C(C)(C)C)c2)c(=O)[nH]1 [I-211, 2-{(E)-2-[3-tert-Butyl-2-methoxy-5-(6-methoxy-2-oxo-1,2-dihydro-pyridin-3-yl)-phenyl]-vinyl}-5-methanesulfonylamino-benzoic acid] | 4 nM
COc1c(/C=C/c2ncc(NS(C)(=O)=O)cc2C)cc(-c2ccc[nH]c2=O)cc1C(C)(C)C [I-213, N-(6-{(E)-2-[3-tert-Butyl-2-methoxy-5-(2-oxo-1,2-dihydro-pyridin-3-yl)-phenyl]-vinyl}-5-methyl-pyridin-3-yl)-methanesulfonamide] | 3 nM
CC(C)(C)c1cc(CCc2ccc(NS(C)(=O)=O)cn2)c(O)c(-c2ccc[nH]c2=O)c1 [I-214, N-(6-{2-[5-tert-butyl-2-hydroxy-3-(2-oxo-1,2-dihydro-pyridin-3-yl)-phenyl]-ethyl}-pyridin-3-yl)-methanesulfonamide] | 2 nM
COc1c(/C=C/c2ccc(NS(C)(=O)=O)cc2COCCC(C)(C)O)cc(-c2cc(F)c[nH]c2=O)cc1C(C)(C)C [I-219, N-[4-{(E)-2-[3-tert-Butyl-5-(5-fluoro-2-oxo-1,2-dihydro-pyridin-3-yl)-2-methoxy-phenyl]-vinyl}-3-(3-hydroxy-3-methyl-butoxymethyl)-phenyl]-methanesulfonamide] | 4 nM
COc1c(/C=C/c2ccc(NS(C)(=O)=O)cc2CN2CCOC2=O)cc(-c2cc(F)c[nH]c2=O)cc1C(C)(C)C [I-220, N-[4-{(E)-2-[3-tert-Butyl-5-(5-fluoro-2-oxo-1,2-dihydro-pyridin-3-yl)-2-methoxy-phenyl]-vinyl}-3-(2-oxo-oxazolidin-3-ylmethyl)-phenyl]-methanesulfonamide] | 5 nM
COc1c(/C=C/c2ccc(NS(C)(=O)=O)cc2CN(C)C)cc(-c2cc(F)c[nH]c2=O)cc1C(C)(C)C [I-221, N-(4-{(E)-2-[3-tert-Butyl-5-(5-fluoro-2-oxo-1,2-dihydro-pyridin-3-yl)-2-methoxy-phenyl]-vinyl}-3-dimethylaminomethyl-phenyl)-methanesulfonamide] | 11 nM
COc1c(/C=C/c2ccc(NS(C)(=O)=O)cc2CN2CCOCC2)cc(-c2cc(F)c[nH]c2=O)cc1C(C)(C)C [I-222, N-(4-{(E)-2-[3-tert-Butyl-5-(5-fluoro-2-oxo-1,2-dihydro-pyridin-3-yl)-2-methoxy-phenyl]-vinyl}-3-morpholin-4-ylmethyl-phenyl)-methanesulfonamide] | 1 nM
COc1c(/C=C/c2ccc(NS(C)(=O)=O)cc2)cc(-c2ccc(C(C)O)[nH]c2=O)cc1C(C)(C)C (stereo not drawn) [I-223, N-[4-((E)-2-{3-tert-Butyl-5-[6-(1-hydroxy-ethyl)-2-oxo-1,2-dihydro-pyridin-3-yl]-2-methoxy-phenyl}-vinyl)-phenyl]-methanesulfonamide] | 1 nM
COc1c(/C=C/c2ccc(NS(C)(=O)=O)cc2)cc(-c2ccc(CC#N)[nH]c2=O)cc1C(C)(C)C [I-224, N-(4-{(E)-2-[3-tert-Butyl-5-(6-cyanomethyl-2-oxo-1,2-dihydro-pyridin-3-yl)-2-methoxy-phenyl]-vinyl}-phenyl)-methanesulfonamide] | 4 nM
COc1c(/C=C/c2ccc(NS(C)(=O)=O)cc2)cc(-c2ccc(COCCO)[nH]c2=O)cc1C(C)(C)C [I-225, N-[4-((E)-2-{3-tert-Butyl-5-[6-(2-hydroxy-ethoxymethyl)-2-oxo-1,2-dihydro-pyridin-3-yl]-2-methoxy-phenyl}-vinyl)-phenyl]-methanesulfonamide] | 6 nM
COCCc1cc(NS(C)(=O)=O)ccc1/C=C/c1cc(-c2cc(F)c[nH]c2=O)cc(C(C)(C)C)c1OC [I-227, N-[4-{(E)-2-[3-tert-Butyl-5-(5-fluoro-2-oxo-1,2-dihydro-pyridin-3-yl)-2-methoxy-phenyl]-vinyl}-3-(2-methoxy-ethyl)-phenyl]-methanesulfonamide] | 1 nM
CCS(=O)(=O)Nc1ccc(/C=C/c2cc(-c3cc(F)c[nH]c3=O)cc(C(C)(C)C)c2OC)cc1 [I-228, Ethanesulfonic acid (4-{(E)-2-[3-tert-butyl-5-(5-fluoro-2-oxo-1,2-dihydro-pyridin-3-yl)-2-methoxy-phenyl]-vinyl}-phenyl)-amide] | 5 nM
COc1c(/C=C/c2ccc(NS(=O)(=O)CC(F)(F)F)cn2)cc(-c2cc(F)c[nH]c2=O)cc1C(C)(C)C [I-229, 2,2,2-Trifluoro-ethanesulfonic acid (6-{(E)-2-[3-tert-butyl-5-(5-fluoro-2-oxo-1,2-dihydro-pyridin-3-yl)-2-methoxy-phenyl]-vinyl}-pyridin-3-yl)-amide] | 2 nM
COc1c(/C=C/c2ccc(NS(=O)(=O)CCCN3CCCC3)cc2)cc(-c2cc(F)c[nH]c2=O)cc1C(C)(C)C [I-230, 3-Pyrrolidin-1-yl-propane-1-sulfonic acid (4-{(E)-2-[3-tert-butyl-5-(5-fluoro-2-oxo-1,2-dihydro-pyridin-3-yl)-2-methoxy-phenyl]-vinyl}-phenyl)-amide] | 6 nM

Same assay, conditions: IC50 HCV NS5B RNA Polymerase Assay, values without asterisk; 20 nM NS5B570n-Con1 enzyme, 20 nM cIRES RNA template

Structure (SMILES) | IC50
COc1c(CC(CN(C)C)c2ccc(NS(C)(=O)=O)cc2)cc(-c2ccc[nH]c2=O)cc1C(C)(C)C (stereo not drawn) [I-192, N-(4-{2-[3-tert-Butyl-2-methoxy-5-(2-oxo-1,2-dihydro-pyridin-3-yl)-phenyl]-1-dimethylaminomethyl-ethyl}-phenyl)-methanesulfonamide] | 28 nM
COc1c(CC(C)(CO)c2ccc(NS(C)(=O)=O)cc2)cc(-c2ccc[nH]c2=O)cc1C(C)(C)C (stereo not drawn) [I-198, N-(4-{2-[3-tert-Butyl-2-methoxy-5-(2-oxo-1,2-dihydro-pyridin-3-yl)-phenyl]-1-hydroxymethyl-1-methyl-ethyl}-phenyl)-methanesulfonamide] | 19 nM
CC(C)(C)c1cc(CCc2ccc(NS(C)(=O)=O)nc2)c(C#N)c(-c2ccc[nH]c2=O)c1 [I-212, N-(5-{2-[5-tert-Butyl-2-cyano-3-(2-oxo-1,2-dihydro-pyridin-3-yl)-phenyl]-ethyl}-pyridin-2-yl)-methanesulfonamide] | 9 nM
CC(C)(C)c1cc(CCc2ccc(NS(C)(=O)=O)cn2)c(O)c(-c2ccc[nH]c2=O)c1 [I-214, N-(6-{2-[5-tert-butyl-2-hydroxy-3-(2-oxo-1,2-dihydro-pyridin-3-yl)-phenyl]-ethyl}-pyridin-3-yl)-methanesulfonamide] | 5 nM
CC(C)(C)c1cc(CCc2ccc(NS(C)(=O)=O)cc2C#N)c(O)c(-c2ccc[nH]c2=O)c1 [I-216, N-(4-{2-[5-tert-Butyl-2-hydroxy-3-(2-oxo-1,2-dihydro-pyridin-3-yl)-phenyl]ethyl}-3-cyano-phenyl)-methanesulfonamide] | 5 nM
CC(C)(C)c1cc(C#Cc2ccc(NS(C)(=O)=O)cc2F)c(O)c(-c2ccc[nH]c2=O)c1 [I-217, N-{4-[5-tert-Butyl-2-hydroxy-3-(2-oxo-1,2-dihydro-pyridin-3-yl)-phenylethynyl]-3-fluoro-phenyl}-methanesulfonamide] | 69 nM
COc1c(C(C)(C)C)cc(-c2ccc[nH]c2=O)c(O)c1CCc1ccc(NS(C)(=O)=O)cc1 [I-218, N-(4-{2-[3-tert-Butyl-6-hydroxy-2-methoxy-5-(2-oxo-1,2-dihydro-pyridin-3-yl)-phenyl]-ethyl}-phenyl)-methanesulfonamide] | 8 nM
